Values joined by “and” are separate entries in the source; they are usually repeats but may differ in a detail not shown here. Equal entries are not always repeated. “Also recorded” adds a separate entry of the source.
Columns and labels:
[1] = test system: TEM-1 S130G β-lactamase; set-up: method as in PMID 15981999; settings: cited from earlier work
[2] = target: T1, CTX-M-14 S130A/K234R β-lactamase (Escherichia coli, UniProt Q9L5C7, K237R/S133A); assay: Steady-state kinetics of β-lactam hydrolysis, S130A/K234R enzyme; assay type: biochemical
T1 construct: His6 (TEV-cleavable) (N, cleaved yes); made in house; host or cells: E. coli BL21(DE3)
Method: (§1) Michaelis–Menten steady-state kinetic parameters of CTX-M-14 β-lactamases were determined on various β-lactam substrates. Wavelength and extinction coefficients used for detection were as follows: ampicillin, 235 nm, Δε = 900 M^−1 cm^−1; cephalothin, 262 nm, Δε = 7,660 M^−1 cm^−1; cefotaxime, 264 nm, Δε = 7,250 M^−1 cm^−1; nitrocefin, 482 nm, Δε = 15,000 M^−1 cm^−1; cefpodoxime, 235 nm, Δε = 1,023 M^−1 cm^−1; ceftriaxone, 241 nm, Δε = 2,046 M^−1 cm^−1. Enzymatic reactions were performed at 25 °C in buffer containing 50 mM sodium phosphate (pH 7.0) and 1 μg/ml BSA. Substrate hydrolysis was monitored by Beckman Coulter spectrophotometer model DU 800 (Beckman Coulter, Brea, CA, USA). Initial hydrolysis velocities of substrate were plotted as a function of concentrations and fitted into a Michaelis–Menten equation using GraphPad Prism 5 (GraphPad Software, San Diego, CA, USA) to obtain Km and kcat values. The kcat/Km values for the enzymes where kcat and Km could not be determined independently were estimated using the equation, ν = (kcat/Km)[E][S], where [S] ≪ Km ([54]).

[3] = target: T2, CTX-M-14 S130A β-lactamase (Escherichia coli, UniProt Q9L5C7, S133A); assay: Steady-state kinetics of β-lactam hydrolysis, S130A enzyme; assay type: biochemical; settings: for Km / kcat: S130A; for fold decrease in kcat / fold increase in Km: S130A compared with WT
T2 construct: His6 (TEV-cleavable) (N, cleaved yes); made in house; host or cells: E. coli BL21(DE3)
Method: as §1

[4] = target: T3, CTX-M-14 K234R β-lactamase (Escherichia coli, UniProt Q9L5C7, K237R); assay: Steady-state kinetics of β-lactam hydrolysis, K234R enzyme; assay type: biochemical; settings: for Km / kcat: 25 °C, pH 7.0
T3 construct: His6 (TEV-cleavable) (N, cleaved yes); made in house; host or cells: E. coli BL21(DE3), pET28a-CTX-M-14 with K234R
Method: as §1

[5] = target: T4, WT CTX-M-14 β-lactamase (Escherichia coli, UniProt Q9L5C7); assay: Clavulanic acid inhibition (Ki, Morrison fit), WT enzyme; assay type: biochemical; settings: ampicillin (100 μM) as indicator substrate, 20 min preincubation
T4 construct: His6 (TEV-cleavable) (N, cleaved yes); made in house; host or cells: E. coli BL21(DE3), plasmid pET28a-CTX-M-14
Method: (§2) The Ki values for clavulanic acid inhibition of CTX-M-14 WT and variants were determined by mixing the enzymes with increasing concentrations of clavulanic acid in buffer containing 50 mM sodium phosphate (pH 7.0) and 1 μg/ml BSA and incubating at room temperature for 20 min. Enzyme activity was evaluated by monitoring the initial velocity of hydrolysis of 100 μM ampicillin using Beckman Coulter spectrophotometer model DU 800. The percentage activity was calculated by dividing the initial hydrolysis velocity for ampicillin in the presence of clavulanic acid by the velocity in the absence of clavulanic acid and plotted as a function of clavulanic acid concentration. The Ki values were obtained by fitting the data into Morrison equation using GraphPad Prism 5 ([55]).

[6] = target: T3, CTX-M-14 K234R β-lactamase; assay: Clavulanic acid inhibition (Ki, Morrison fit), K234R enzyme; assay type: biochemical; settings: ampicillin as indicator substrate, 20 min preincubation
Method: as §2

[7] = target: T1, CTX-M-14 S130A/K234R β-lactamase; assay: Clavulanic acid inhibition (Ki, Morrison fit), S130A/K234R enzyme; assay type: biochemical
Method: as §2

[8] = target: T2, CTX-M-14 S130A β-lactamase; assay: Clavulanic acid inhibition (Ki, Morrison fit), S130A enzyme; assay type: biochemical; settings: ampicillin as indicator substrate, 20 min preincubation
Method: as §2

[9] = test system: TEM-1 β-lactamase K234T; set-up: method as in PMID 1910040; settings: TEM-1 K234T versus TEM-1; cited from earlier work
[10] = target: T4, WT CTX-M-14 β-lactamase; assay: Steady-state kinetics of β-lactam hydrolysis, WT enzyme; assay type: biochemical
Method: as §1

[11] = test system: CC1(C)S[C@@H]2[C@H](NC(=O)[C@H](N)c3ccccc3)C(=O)N2[C@H]1C(=O)O; assay: as above; assay type: biochemical; settings: other: WT CTX-M-14, 25 °C, pH 7.0
Method: as §1

[12] = test system: CO/N=C(\C(=O)N[C@@H]1C(=O)N2C(C(=O)O)=C(COC(C)=O)CS[C@H]12)c1csc(N)n1; assay: as above; assay type: biochemical; settings: other: WT CTX-M-14, 25 °C, pH 7.0
Method: as §1

[13] = target: T4, WT CTX-M-14 β-lactamase; assay: Single-turnover stopped-flow kinetics, WT enzyme; assay type: biochemical
Method: (§3) Single-turnover kinetics experiments were used to determine the acylation rate for the CTX-M-14 WT and K234R enzymes. Kinetic measurements were carried out at 25 °C using a using a KinTek stopped-flow instrument. Protein concentrations used in this experiment exceed the substrate concentrations. To prepare sample injection, 1 ml of increasing concentrations of CTX-M-14 proteins and 1 ml of 2.5–5 μM cefotaxime were loaded into two separate drive syringes. 5 μM cefotaxime was used for single-turnover experiments with WT CTX-M-14, whereas 2.5 μM cefotaxime was used in experiments with the K234R enzyme. Data collection times were adjusted empirically. Absorbance at 264 nm was monitored after samples in two syringes were mixed. For each selected time period, 1,000 data points were collected, and at least three kinetic traces were obtained to ensure high-quality data. Kinetic data with various protein concentrations were fitted to a single-exponential function, At=A^(−kt)+C , to determine kobs, which was then used to determine k2 by fitting kobs as a function of enzyme concentration to a hyperbola, as has been reported previously for serine β-lactamases and serine proteases ([33], [34], [35]). The deacylation rate constant, k3, was calculated from the experimental values determined for kcat and k2, using the equation, kcat = k2 × k3/(k2 + k3). Solving the equation for kcat in terms of k3 gives k3 = (k2 × kcat)/(kcat − k2). The error in the calculated value of k3 was determined by propagating the errors in k2 and kcat through the equation by adding the absolute errors for the sum (difference) in the denominator to obtain the absolute and the percentage error in kcat − k2. The percentage error of the numerator, (kcat × k2), was calculated by adding the percentage error for kcat and k2, and the final percentage and absolute errors on k3 were then obtained by adding the percentage error of the numerator and denominator to yield the percentage error in k3.

[14] = test system: CTX-M β-lactamases; settings: CTX-M versus TEM-1; cited from earlier work
[15] = test system: PSE-4 β-lactamase; set-up: method as in PMID 11148033, PMID 9756758; settings: WT PSE-4; cited from earlier work
[16] = target: T3, CTX-M-14 K234R β-lactamase; assay: Single-turnover stopped-flow kinetics, K234R enzyme; assay type: biochemical
Method: as §3, with “Kinetic data with various protein concentrations were fitted to a single-exponential function, At=A^(−kt)+C , to determine kobs, which was then used to determine k2 by fitting kobs as a function of enzyme concentration to a hyperbola, as has been reported previously for serine β-lactamases and serine proteases ([33], [34], [35]).” left out, “Solving the equation for kcat in terms of k3 gives k3 = (k2 × kcat)/(kcat − k2).” left out, “The percentage error of the numerator, (kcat × k2), was calculated by adding the percentage error for kcat and k2, and the final percentage and absolute errors on k3 were then obtained by adding the percentage error of the numerator and denominator to yield the percentage error in k3.” left out

CC1(C)S[C@@H]2[C@H](NC(=O)[C@H](N)c3ccccc3)C(=O)N2[C@H]1C(=O)O [Ampicillin, ampicillin]
fold reduction in hydrolysis [1]: 10 fold
Km ([2]; S130A/K234R, too high to measure): > 30000 µM
Km [3]: 30000 µM
fold decrease in kcat [3]: 2 fold
fold increase in Km [3]: 260 fold
Km ([3]; 25 °C, pH 7.0): 30700 µM
kcat ([3]; 25 °C, pH 7.0): 30 ± 2 s⁻¹
change in kcat/Km (catalytic efficiency), in words ([4]; K234R compared with WT): unchanged; also recorded: only modestly changed
fold increase in Km ([4]; K234R compared with WT): 9 fold
fold increase in kcat ([4]; K234R compared with WT): 5 fold
fold increase in acylation rate ([4]; K234R compared with WT, inferred from kcat): at least 5 fold
Km ([4]; K234R): 1050 µM
kcat ([4]; K234R): 330 ± 33 s⁻¹
kcat ([4]; K234R, listed as ampicillin): 330 s⁻¹
k2 (acylation rate), lower limit based on kcat ([4]; K234R, inferred from kcat): ≥ 330 s⁻¹
k3 (deacylation rate), lower limit based on kcat ([4]; K234R, inferred from kcat): ≥ 330 s⁻¹

O=C(O)[C@H]1/C(=C/CO)O[C@@H]2CC(=O)N21 [Clav acid, Clavulanic acid]
Ki [5]: 0.08 ± 0.001 µM
Ki [6]: 0.39 ± 0.02 µM
Ki, fold above WT ([7]; S130A/K234R compared with WT): 3,500 fold
Ki ([7]; S130A/K234R, ampicillin as indicator substrate, 20 min preincubation): 270 ± 20 µM
Ki [8]: 30 µM and 31 µM

CC1(C)S[C@@H]2[C@H](NC(=O)Cc3ccccc3)C(=O)N2[C@H]1C(=O)O [benzylpenicillin]
fold increase in Km [9]: 50 fold
fold reduction in kcat [9]: ~50 fold

CO/N=C(\C(=O)N[C@@H]1C(=O)N2C(C(=O)O)=CCS[C@H]12)c1csc(N)n1 [ceftizoxime]
Km, fold higher than for cefotaxime [10]: 45 fold
kcat, fold higher than for cefotaxime [10]: 2 fold
kcat/Km, fold lower than for cefotaxime [10]: 20 fold
fold decrease in Km ([4]; K234R compared with WT): 8 fold
fold decrease in kcat ([4]; K234R compared with WT): 320 fold
fold decrease in kcat/Km ([4]; K234R compared with WT): 40 fold

CC(=O)OCC1=C(C(=O)O)N2C(=O)[C@@H](NC(=O)Cc3cccs3)[C@H]2SC1 [cephalothin]
kcat, fold higher than for cefotaxime [10]: ~7 fold
kcat/Km, fold higher than for cefotaxime [10]: ~3 fold
fold decrease in Km ([4]; K234R compared with WT): 20 fold
fold decrease in kcat ([4]; K234R compared with WT): 100 fold
fold decrease in kcat/Km ([4]; K234R compared with WT): 6 fold

WT CTX-M-14 β-lactamase (Escherichia coli)
Km [11]: 120 ± 10 µM
kcat [11]: 67 ± 3 s⁻¹
kcat/Km [11]: 560000 ± 20000 M⁻¹ s⁻¹
Km [12]: 66 ± 3 µM
kcat [12]: 100 ± 1 s⁻¹
kcat/Km [12]: 1.5e+06 ± 100000 M⁻¹ s⁻¹

CO/N=C(\C(=O)N[C@@H]1C(=O)N2C(C(=O)O)=C(COC(C)=O)CS[C@H]12)c1csc(N)n1 [Cefotaxime, cefotaxime]
k3 (deacylation rate) ([13]; calculated from k2 and kcat): 190 s^−1 and 190 ± 35 ^b s^−1
Kd ([13]; fit of kobs from single turnover, read-out: KD (Ks, dissociation constant)): 74 ± 12 µM
k2 (acylation rate) ([13]; single turnover, 5 μM cefotaxime, 25 °C): 210 s⁻¹ and 210 ± 12 s⁻¹
fold reduction in kcat ([2]; S130A/K234R compared with K234R): 400 fold
fold reduction in kcat ([2]; S130A/K234R compared with S130A): 200 fold
Km ([2]; S130A/K234R, 25 °C, pH 7.0): 120 ± 17 µM
kcat ([2]; S130A/K234R, 25 °C, pH 7.0): 0.0005 ± 0.0001 s⁻¹
fold decrease in kcat [3]: 1,000 fold
fold increase in Km [3]: 4 fold
Km ([3]; 25 °C, pH 7.0): 260 ± 13 µM
kcat ([3]; 25 °C, pH 7.0): 0.1 ± 0.003 s⁻¹
hydrolysis, fold faster than TEM-1 [14]: ~1,000 fold
kcat, fold lower than for ampicillin hydrolysis [15]: ~2,000 fold
fold decrease in Km ([4]; K234R compared with WT): 6 fold
fold decrease in kcat ([4]; K234R compared with WT): 500 fold
fold decrease in kcat/Km ([4]; K234R compared with WT): 80 fold
Km ([4]; K234R): 11 ± 4 µM
kcat ([4]; K234R): 0.2 ± 0.01 s⁻¹
kcat ([4]; K234R, listed as cefotaxime): 0.2 s⁻¹
k3 (deacylation rate), lower limit based on kcat ([4]; K234R, inferred from kcat): ≥ 0.2 s⁻¹
Kd ([16]; fit of kobs from single turnover): 42 ± 8 µM
k2 (acylation rate) ([16]; single turnover, 2.5 μM cefotaxime, 25 °C): 0.14 s⁻¹ and 0.14 ± 0.01 s⁻¹

CO/N=C(\C(=O)N[C@@H]1C(=O)N2C(C(=O)O)=C(CSc3nc(=O)c(=O)[nH]n3C)CS[C@H]12)c1csc(N)n1 [ceftriaxone]
fold decrease in Km ([4]; K234R compared with WT): 2 fold
fold decrease in kcat ([4]; K234R compared with WT): 400 fold
fold decrease in kcat/Km ([4]; K234R compared with WT): 170 fold

COCC1=C(C(=O)O)N2C(=O)[C@@H](NC(=O)/C(=N\OC)c3csc(N)n3)[C@H]2SC1 [cefpodoxime]
fold decrease in Km ([4]; K234R compared with WT): 9 fold
fold decrease in kcat ([4]; K234R compared with WT): 430 fold
fold decrease in kcat/Km ([4]; K234R compared with WT): 50 fold
